Results: ChEMBL document CHEMBL3244006, “Synthesis and antinociceptive activity of 7-methoxycodeine” (J Med Chem, 1978)
Active and inactive are the calls of the source. The rule behind the calls is not given here.

Key:
Mus musculus [1] = assay: Antinociceptive activity in sc dosed mouse by Eddy hot-plate assay; format: functional
Mus musculus [2] = assay: Antinociceptive activity in mouse at 100 mg/kg, po by Eddy hot-plate assay; format: functional, organism-based; set-up: dose 100 mg/kg
Mus musculus [3] = assay: Antinociceptive activity in po dosed mouse by Eddy hot-plate assay; format: functional
Mus musculus [4] = assay: Antinociceptive activity in mouse at 100 mg/kg, sc by Eddy hot-plate assay; format: functional, organism-based; set-up: dose 100 mg/kg
[5] = Stability of the compound in acidic media; format: physicochemical

| Structure (SMILES) | ED50 (Mus musculus [1]) | ED50 (Mus musculus [3]) | further results |
| --- | --- | --- | --- |
| COC1=C[C@H]2[C@H]3Cc4c(Br)cc(OC)c5c4[C@@]2(CCN3C)[C@@H](O5)C1=O | 40.4 µmol/kg |  |  |
| COc1ccc2c(c1O)[C@]13CCN(C)[C@H](C2)[C@@H]1CC(=O)C(=O)C3 | 26.7 µmol/kg |  | Activity (Mus musculus [2]): inactive |
| COc1ccc2c3c1O[C@H]1[C@@H](O)C=C[C@H]4[C@@H](C2)N(C)CC[C@@]341 [CODEINE PHOSPHATE] |  | 34 µmol/kg |  |
| COC1=C[C@H]2[C@H]3Cc4c(Br)cc(OC)c(O)c4[C@@]2(CCN3C)CC1=O |  |  | Activity (Mus musculus [4]): inactive |
| COC1=C[C@]23CCN(C)[C@H](Cc4c(Br)cc(OC)c(O)c42)[C@@H]3CC1=O |  |  | Activity (Mus musculus [4]): inactive |
| CN1CC[C@]23c4c5ccc(O)c4O[C@H]2[C@@H](O)C=C[C@H]3[C@H]1C5 | 3.3 µmol/kg | 18.8 µmol/kg |  |
| COC1=C[C@H]2[C@H]3Cc4ccc(OC)c5c4[C@@]2(CCN3C)[C@@H](O5)[C@H]1O | 43.1 µmol/kg | 30.4 µmol/kg | Stability [5]: Unstable |
